Laboratory results published in patent US5053425A, “Novel anti-fungal compounds” (Merck & Co., Inc., priority 1990, dated 1991).
In brackets after ≈: the same amount, converted by molar mass.

How the values were obtained:
Format in all cases: cell-based
[1] = system: A. fumigatus MF4839; assay: MIC, inhibitor dilution assay in microtiter format, A. fumigatus MF4839; conditions: Aspergillus fumigatus; A. fumigatus MF4839, 42 hours, 28° C.; read-out: Minimum Inhibitory Concentration
Procedure: (§1) The compounds are particularly active towards filamentous fungi and yeasts including Candida albicans and Crypt neoformans. The sensitivity of filamentous fungi and yeast was determined using inhibitor dilution assays in microtiter format. The compounds were dissolved in DMSO at 2 mg/ml and serially diluted in 0.1M phosphate buffer, pH 7.0 in the microtiter dish from 100 to 0.006 μg/ml. A standardized spore suspension for testing the filamentous fungi was prepared by inoculating Antibiotic Medium #3 containing 1.5% agar with spores such that 1.5×10^3 colony forming units were added per well. The microtiter wells were filled with 50 μl of buffer containing compound and 50 μl of inoculated medium. The sensitivity of yeasts was determined by inoculating yeast nitrogen base containing 1% dextrose (YNB/G) with aliquots of an overnight yeast culture grown in yeast morphology (YM) media at 35° C. and diluting in YNB/G to yield a final concentration of 1.5-7.5×10^3 colony forming units/well. One hundred fifty μl of inoculated media was added per well. To test the sensitivity of yeast, compound was solubilized in 10 percent aqueous DMSO at 2.56 mg/ml. The compound was diluted serially in YNB/G from 128 to 0.06 μg/ml. The wells were filled with 150 μl of drug containing media. […]

[2] = system: C. albicans MY1055; assay: MIC and MFC, inhibitor dilution assay in microtiter format, C. albicans MY1055; conditions: Candida albicans; for MIC: C. albicans MY1055, 24 hours, 28° C., read-out: Minimum Inhibitory Concentration; for MFC: C. albicans MY1055, no growth or no more than three colonies, read-out: Minimum Fungicidal Concentration
Procedure: (§2) The compounds are particularly active towards filamentous fungi and yeasts including Candida albicans and Crypt neoformans. The sensitivity of filamentous fungi and yeast was determined using inhibitor dilution assays in microtiter format. The compounds were dissolved in DMSO at 2 mg/ml and serially diluted in 0.1M phosphate buffer, pH 7.0 in the microtiter dish from 100 to 0.006 μg/ml. A standardized spore suspension for testing the filamentous fungi was prepared by inoculating Antibiotic Medium #3 containing 1.5% agar with spores such that 1.5×10^3 colony forming units were added per well. The microtiter wells were filled with 50 μl of buffer containing compound and 50 μl of inoculated medium. The sensitivity of yeasts was determined by inoculating yeast nitrogen base containing 1% dextrose (YNB/G) with aliquots of an overnight yeast culture grown in yeast morphology (YM) media at 35° C. and diluting in YNB/G to yield a final concentration of 1.5-7.5×10^3 colony forming units/well. One hundred fifty μl of inoculated media was added per well. To test the sensitivity of yeast, compound was solubilized in 10 percent aqueous DMSO at 2.56 mg/ml. The compound was diluted serially in YNB/G from 128 to 0.06 μg/ml. The wells were filled with 150 μl of drug containing media. The minimum inhibitory concentration (MIC) is defined as the lowest concentration to prevent visible growth after an incubation for 42 hours, 28° C. for the filamentous fungi and 24 hours, 28° C. for the yeasts. […] Representative of the antifungal activity are the minimum inhibitory concentration and minimum fungicidal concentration data shown below: […]

[3] = system: Fus. oxysporum MF4014; assay: MIC, inhibitor dilution assay in microtiter format, Fus. oxysporum MF4014; conditions: Fusarium oxysporum; Fus. oxysporum MF4014, 42 hours, 28° C.; read-out: Minimum Inhibitory Concentration
Procedure: as §1

[4] = system: Crypt. neoformans MY1051; assay: MIC and MFC, inhibitor dilution assay in microtiter format, Crypt. neoformans MY1051; conditions: Cryptococcus neoformans; for MFC: Crypt neoformans MY1051, no growth or no more than three colonies, read-out: Minimum Fungicidal Concentration; for MIC: Crypt. neoformans MY1051, 24 hours, 28° C., read-out: Minimum Inhibitory Concentration
Procedure: as §2

[5] = system: A. niger MF442; assay: MIC, inhibitor dilution assay in microtiter format, A. niger MF442; conditions: Aspergillus niger; A. niger MF442, 42 hours, 28° C.; read-out: Minimum Inhibitory Concentration
Procedure: as §1

[6] = system: Pen. italicum MF2819; assay: MIC, inhibitor dilution assay in microtiter format, Pen. italicum MF2819; conditions: Penicillium italicum; Pen. italicum MF2819, 42 hours, 28° C.; read-out: Minimum Inhibitory Concentration
Procedure: as §1

[7] = system: T. Mentagrophytes MF4864; assay: MIC, inhibitor dilution assay in microtiter format, T. Mentagrophytes MF4864; conditions: Trichophyton mentagrophytes; T. Mentagrophytes MF4864, 42 hours, 28° C.; read-out: Minimum Inhibitory Concentration
Procedure: as §1

[8] = system: C. tropicalis MY1012; assay: MIC and MFC, inhibitor dilution assay in microtiter format, C. tropicalis MY1012; conditions: Candida tropicalis; for MIC: C. tropicalis MY1012, 24 hours, 28° C., read-out: Minimum Inhibitory Concentration; for MFC: C. tropicalis MY1012, no growth or no more than three colonies, read-out: Minimum Fungicidal Concentration
Procedure: as §2

[9] = system: C. parapsilosis MY1010; assay: MIC and MFC, inhibitor dilution assay in microtiter format, C. parapsilosis MY1010; conditions: Lodderomyces parapsilosis; for MIC: C. parapsilosis MY1010, 24 hours, 28° C., read-out: Minimum Inhibitory Concentration; for MFC: C. parapsilosis MY1010, no growth or no more than three colonies, read-out: Minimum Fungicidal Concentration
Procedure: as §2

[10] = system: Coch. miyabeanus MF4626; assay: MIC, inhibitor dilution assay in microtiter format, Coch. miyabeanus MF4626; conditions: Bipolaris oryzae, MF4626, 42 h, read-out: Minimum Inhibitory Concentration
Procedure: as §1

[11] = system: A. flavus MF383; assay: MIC, inhibitor dilution assay in microtiter format, A. flavus MF383; conditions: Aspergillus flavus; A. flavus MF383, 42 hours, 28° C.; read-out: Minimum Inhibitory Concentration
Procedure: as §1

For C=C(CCC12OC(C(=O)O)C(O)(C(=O)O)C(C(=O)O)(O1)C(OC(=O)C=CC(C)CC(C)CC)C2O)C(OC(C)=O)C(C)Cc1ccccc1 (centres unmarked) [Compound A], the MIC [1] was 6.2 µg/mL (≈ 8.98 µM), the MIC [2] was 8 µg/mL (≈ 11.6 µM) and the MFC [2] was 4 µg/mL (≈ 5.79 µM). The MIC [3] was over 100 µg/mL, the MFC [4] was 0.5 µg/mL (≈ 0.724 µM) and the MIC [4] was 1 µg/mL (≈ 1.45 µM). It also gave an MIC [5] of 25 µg/mL (≈ 36.2 µM), an MIC [6] of 6.2 µg/mL (≈ 8.98 µM) and an MIC [7] of 4 µg/mL (≈ 5.79 µM). For the same compound, the MIC [8] was 4 µg/mL (≈ 5.79 µM), the MFC [8] was 2 µg/mL (≈ 2.9 µM) and the MIC [9] was 8 µg/mL (≈ 11.6 µM). The MFC [9] was 2 µg/mL (≈ 2.9 µM), the MIC [10] was 1.6 µg/mL (≈ 2.32 µM) and the MIC [11] was 6.2 µg/mL (≈ 8.98 µM).

C=C(CCC12OC(C(=O)OC)C(O)(C(=O)OC)C(C(=O)OC)(O1)C(OC(=O)C=CC(C)CC(C)CC)C2O)C(OC(C)=O)C(C)Cc1ccccc1 (centres unmarked) [Compound B] was tested, and the MIC [1] was over 128 µg/mL, the MIC [2] was over 128 µg/mL and the MFC [2] was over 128 µg/mL. For the same compound, the MFC [4] was over 128 µg/mL, the MIC [4] was over 128 µg/mL and the MIC [7] was over 128 µg/mL. It also gave an MIC [8] of over 128 µg/mL, an MFC [8] of over 128 µg/mL and an MIC [9] of over 128 µg/mL. For the same compound, the MFC [9] was over 128 µg/mL and the MIC [11] was over 128 µg/mL.
